The values that follow are results of earlier work, collected in article PMC5826112, “Intrapulmonary Pharmacokinetics of Relebactam, a Novel β-Lactamase Inhibitor, Dosed in Combination with Imipenem-Cilastatin in Healthy Subjects” (Antimicrobial Agents and Chemotherapy, 2018).

On the set-up of data set [1]: method as in earlier work. The conditions noted are these: relebactam doses of 125 mg or higher; exceeds single-dose target; cited from earlier work.
Details of data set [2]: method as in earlier work. The conditions noted are these: cited from earlier work.
On the set-up of data set [3]: method as in data on file. The following applies: mice; ref data on file; cited from earlier work.

For the molecule `O=C(NC1CCNCC1)[C@@H]1CC[C@@H]2CN1C(=O)N2OS(=O)(=O)O` [relebactam], in data set [1], the “exposure (AUC0–∞)” value is more than 37.5 µM·h. Besides, the “single-dose target (AUC0–∞)” value in data set [2] (derived from the target of 150 μM · h after four times daily dosing) was 37.5 µM·h. In addition, the “required exposure (AUC0–24) for efficacy” value in data set [2] (pulmonary infection model) was 150 µM·h. For the same molecule, in data set [3], the “penetration into the murine lung, ratio of total drug levels in the lung to total drug levels in plasma” value was “approximately 34%”.
